Test results from ChEMBL document CHEMBL3885861, “Open TG-GATES”.

Species: Rattus norvegicus
Assay: Open TG-GATES - Regimen: Daily Repeat
Type: toxicity, organism-based, Sprague-Dawley
Design: regimen Daily Repeat, gender Male, age 6 weeks
Settings: in vivo, po, route gavage; for APTT / Bas / Eos / Fbg / Hb / Ht / Lym / MCH / MCHC / MCV / Mono / Neu / PT / Plat / RBC / Ret / WBC: tissue Blood; for KIDNEY_L / KIDNEY_R / KIDNEY_TOTAL: tissue Kidney; for LIVER: tissue Liver; for ALP / ALT / AST / BUN / CRE / Ca / DBIL / GLC / IP / K / LDH / Na / PL / RALB / TBIL / TC / TG / TP / gamma-GTP: tissue Plasma
[1] = 0 mg/kg, 72 h, dose level Control, time 3 day
[2] = 0 mg/kg, […], dose level Control, time 7 day
[3] = 0 mg/kg, […], dose level Control, time 14 day
[4] = 0 mg/kg, […], dose level Control, time 28 day
[5] = 10 mg/kg, 72 h, dose level Low, time 3 day
[6] = 10 mg/kg, […], dose level Low, time 7 day
[7] = 10 mg/kg, […], dose level Low, time 14 day
[8] = 10 mg/kg, […], dose level Low, time 28 day

**Q.** Which results are given for `CSc1ccc2c(c1)N(CCC1CCCCN1C)c1ccccc1S2` (configuration not stated) [THIORIDAZINE]?
**A.** TERMINAL_BW [1]: 237.9 g; APTT [1]: 16.6 s; Bas [1]: 0%; Eos [1]: 1%; Fbg [1]: 215.2 mg/dL; Hb [1]: 13.7 g/dL; Ht [1]: 40.7%; Lym [1]: 78%; MCH [1]: 21.7 pg; MCHC [1]: 33.7%; MCV [1]: 64.4 fL; Mono [1]: 8.4%; Neu [1]: 13%; PT [1]: 11.9 s; Plat [1]: 107.7 x10_4/uL; RBC [1]: 631.6 x10_4/ul; Ret [1]: 8.1%; WBC [1]: 120 x10_2/uL; KIDNEY_L [1]: 1.1 g; KIDNEY_R [1]: 1.1 g; KIDNEY_TOTAL [1]: 2.2 g; LIVER [1]: 12 g; ALP [1]: 821.6 IU/L; ALT [1]: 37 IU/L; AST [1]: 63.8 IU/L; BUN [1]: 16.6 mg/dL; CRE [1]: 0.5 mg/dL; Ca [1]: 11.1 mg/dL; DBIL [1]: 0.034 mg/dL; GLC [1]: 193.4 mg/dL; IP [1]: 9.3 mg/dL; K [1]: 5.2 meq/L; LDH [1]: 95 IU/L; Na [1]: 139.4 meq/L; PL [1]: 159.6 mg/dL; RALB [1]: 4.2 g/dL; TBIL [1]: 0.4 mg/dL; TC [1]: 87 mg/dL; TG [1]: 88.2 mg/dL; TP [1]: 6 g/dL; gamma-GTP [1]: 1.2 IU/L; TERMINAL_BW [2]: 272.6 g; TERMINAL_BW [3]: 326.5 g; TERMINAL_BW [4]: 411.3 g; APTT [2]: 15.1 s; Bas [2]: 0%; Eos [2]: 0.6%; Fbg [2]: 241.2 mg/dL; Hb [2]: 13.9 g/dL; Ht [2]: 41.7%; Lym [2]: 83%; MCH [2]: 21.7 pg; MCHC [2]: 33.3%; MCV [2]: 65 fL; Mono [2]: 6.2%; Neu [2]: 10.2%; PT [2]: 11.6 s; Plat [2]: 100.8 x10_4/uL; RBC [2]: 642.4 x10_4/ul; Ret [2]: 5.4%; WBC [2]: 141.4 x10_2/uL; APTT [3]: 16.8 s; Bas [3]: 0%; Eos [3]: 0.6%; Fbg [3]: 243.4 mg/dL; Hb [3]: 14.4 g/dL; Ht [3]: 42.9%; Lym [3]: 78.4%; MCH [3]: 20.6 pg; MCHC [3]: 33.5%; MCV [3]: 61.5 fL; Mono [3]: 6.4%; Neu [3]: 14.6%; PT [3]: 11.5 s; Plat [3]: 106.3 x10_4/uL; RBC [3]: 697.6 x10_4/ul; Ret [3]: 4.5%; WBC [3]: 129.7 x10_2/uL; APTT [4]: 18.1 s; Bas [4]: 0%; Eos [4]: 0.6%; Fbg [4]: 234.6 mg/dL; Hb [4]: 15.2 g/dL; Ht [4]: 45.5%; Lym [4]: 83.4%; MCH [4]: 19.8 pg; MCHC [4]: 33.4%; MCV [4]: 59.2 fL; Mono [4]: 7.6%; Neu [4]: 8.2%; PT [4]: 11.8 s; Plat [4]: 98 x10_4/uL; RBC [4]: 769.4 x10_4/ul; Ret [4]: 3%; WBC [4]: 131.4 x10_2/uL; KIDNEY_L [2]: 1.2 g; KIDNEY_R [2]: 1.2 g; KIDNEY_TOTAL [2]: 2.4 g; KIDNEY_L [3]: 1.3 g; KIDNEY_R [3]: 1.3 g; KIDNEY_TOTAL [3]: 2.6 g; KIDNEY_L [4]: 1.5 g; KIDNEY_R [4]: 1.5 g; KIDNEY_TOTAL [4]: 2.9 g; LIVER [2]: 13.4 g; LIVER [3]: 15.6 g; LIVER [4]: 18.7 g; ALP [2]: 973 IU/L; ALT [2]: 32.4 IU/L; AST [2]: 65 IU/L; BUN [2]: 18.2 mg/dL; CRE [2]: 0.5 mg/dL; Ca [2]: 11.4 mg/dL; DBIL [2]: 0.016 mg/dL; GLC [2]: 181.2 mg/dL; IP [2]: 9 mg/dL; K [2]: 5.2 meq/L; LDH [2]: 149.4 IU/L; Na [2]: 141.6 meq/L; PL [2]: 175 mg/dL; RALB [2]: 4 g/dL; TBIL [2]: 0.3 mg/dL; TC [2]: 89.2 mg/dL; TG [2]: 140.8 mg/dL; TP [2]: 5.9 g/dL; gamma-GTP [2]: 1.4 IU/L; ALP [3]: 864.8 IU/L; ALT [3]: 33.4 IU/L; AST [3]: 57.2 IU/L; BUN [3]: 19 mg/dL; CRE [3]: 0.5 mg/dL; Ca [3]: 10.8 mg/dL; DBIL [3]: 0.014 mg/dL; GLC [3]: 189.8 mg/dL; IP [3]: 8 mg/dL; K [3]: 4.9 meq/L; LDH [3]: 96.8 IU/L; Na [3]: 139.8 meq/L; PL [3]: 163.6 mg/dL; RALB [3]: 4.1 g/dL; TBIL [3]: 0.3 mg/dL; TC [3]: 71.8 mg/dL; TG [3]: 200.4 mg/dL; TP [3]: 6.3 g/dL; gamma-GTP [3]: 0.8 IU/L; ALP [4]: 618.8 IU/L; ALT [4]: 34.6 IU/L; AST [4]: 62 IU/L; BUN [4]: 20.4 mg/dL; CRE [4]: 0.6 mg/dL; Ca [4]: 10.7 mg/dL; DBIL [4]: 0 mg/dL; GLC [4]: 191.4 mg/dL; IP [4]: 6.7 mg/dL; K [4]: 4.5 meq/L; LDH [4]: 135.2 IU/L; Na [4]: 139.4 meq/L; PL [4]: 170.8 mg/dL; RALB [4]: 4.1 g/dL; TBIL [4]: 0.3 mg/dL; TC [4]: 87.4 mg/dL; TG [4]: 186.2 mg/dL; TP [4]: 6.5 g/dL; gamma-GTP [4]: 1.4 IU/L; TERMINAL_BW [5]: 239 g; APTT [5]: 16.3 s; Bas [5]: 0%; Eos [5]: 1%; Fbg [5]: 219.4 mg/dL; Hb [5]: 13.5 g/dL; Ht [5]: 40.6%; Lym [5]: 81%; MCH [5]: 21.2 pg; MCHC [5]: 33.3%; MCV [5]: 63.6 fL; Mono [5]: 5.8%; Neu [5]: 12.4%; PT [5]: 11.9 s; Plat [5]: 107.3 x10_4/uL; RBC [5]: 638.4 x10_4/ul; Ret [5]: 8.8%; WBC [5]: 136.6 x10_2/uL; KIDNEY_L [5]: 1.1 g; KIDNEY_R [5]: 1.1 g; KIDNEY_TOTAL [5]: 2.2 g; LIVER [5]: 12.5 g; ALP [5]: 797.8 IU/L; ALT [5]: 35.6 IU/L; AST [5]: 62.2 IU/L; BUN [5]: 17.2 mg/dL; CRE [5]: 0.5 mg/dL; Ca [5]: 11 mg/dL; DBIL [5]: 0.042 mg/dL; GLC [5]: 193.2 mg/dL; IP [5]: 9 mg/dL; K [5]: 4.7 meq/L; LDH [5]: 82 IU/L; Na [5]: 138.2 meq/L; PL [5]: 163 mg/dL; RALB [5]: 3.9 g/dL; TBIL [5]: 0.3 mg/dL; TC [5]: 81.8 mg/dL; TG [5]: 137 mg/dL; TP [5]: 5.9 g/dL; gamma-GTP [5]: 1.6 IU/L; TERMINAL_BW [6]: 268.9 g; TERMINAL_BW [7]: 333.8 g; TERMINAL_BW [8]: 403.9 g; APTT [6]: 16.8 s; Bas [6]: 0%; Eos [6]: 0.8%; Fbg [6]: 223 mg/dL; Hb [6]: 13.9 g/dL; Ht [6]: 41.4%; Lym [6]: 79.2%; MCH [6]: 20.6 pg; MCHC [6]: 33.5%; MCV [6]: 61.5 fL; Mono [6]: 7%; Neu [6]: 13.2%; PT [6]: 12.1 s; Plat [6]: 118.8 x10_4/uL; RBC [6]: 674.2 x10_4/ul; Ret [6]: 5.2%; WBC [6]: 127.5 x10_2/uL; APTT [7]: 17.3 s; Bas [7]: 0%; Eos [7]: 0.8%; Fbg [7]: 237.8 mg/dL; Hb [7]: 14.7 g/dL; Ht [7]: 43.8%; Lym [7]: 84.4%; MCH [7]: 20.8 pg; MCHC [7]: 33.6%; MCV [7]: 62.1 fL; Mono [7]: 5.8%; Neu [7]: 9%; PT [7]: 11.7 s; Plat [7]: 115 x10_4/uL; RBC [7]: 706.6 x10_4/ul; Ret [7]: 4.2%; WBC [7]: 167.8 x10_2/uL; APTT [8]: 17.6 s; Bas [8]: 0%; Eos [8]: 1%; Fbg [8]: 233 mg/dL; Hb [8]: 15.4 g/dL; Ht [8]: 45.5%; Lym [8]: 83.6%; MCH [8]: 19.8 pg; MCHC [8]: 33.9%; MCV [8]: 58.3 fL; Mono [8]: 6.2%; Neu [8]: 9.6%; PT [8]: 12.1 s; Plat [8]: 121.4 x10_4/uL; RBC [8]: 780.6 x10_4/ul; Ret [8]: 2.6%; WBC [8]: 150 x10_2/uL; KIDNEY_L [6]: 1.1 g; KIDNEY_R [6]: 1.1 g; KIDNEY_TOTAL [6]: 2.3 g; KIDNEY_L [7]: 1.3 g; KIDNEY_R [7]: 1.4 g; KIDNEY_TOTAL [7]: 2.7 g; KIDNEY_L [8]: 1.5 g; KIDNEY_R [8]: 1.5 g; KIDNEY_TOTAL [8]: 3 g; LIVER [6]: 13.2 g; LIVER [7]: 15.4 g; LIVER [8]: 17.2 g; ALP [6]: 792.4 IU/L; ALT [6]: 34 IU/L; AST [6]: 61 IU/L; BUN [6]: 18.4 mg/dL; CRE [6]: 0.5 mg/dL; Ca [6]: 11.1 mg/dL; DBIL [6]: 0 mg/dL; GLC [6]: 197.2 mg/dL; IP [6]: 8.3 mg/dL; K [6]: 4.8 meq/L; LDH [6]: 84 IU/L; Na [6]: 139.4 meq/L; PL [6]: 172.8 mg/dL; RALB [6]: 4 g/dL; TBIL [6]: 0.3 mg/dL; TC [6]: 88.4 mg/dL; TG [6]: 118.6 mg/dL; TP [6]: 6 g/dL; gamma-GTP [6]: 1.2 IU/L; ALP [7]: 779.6 IU/L; ALT [7]: 33.6 IU/L; AST [7]: 62.8 IU/L; BUN [7]: 20.4 mg/dL; CRE [7]: 0.6 mg/dL; Ca [7]: 10.9 mg/dL; DBIL [7]: 0.002 mg/dL; GLC [7]: 178.6 mg/dL; IP [7]: 7.8 mg/dL; K [7]: 5.2 meq/L; LDH [7]: 110.2 IU/L; Na [7]: 139.4 meq/L; PL [7]: 167.8 mg/dL; RALB [7]: 4.1 g/dL; TBIL [7]: 0.3 mg/dL; TC [7]: 81.2 mg/dL; TG [7]: 158 mg/dL; TP [7]: 6.3 g/dL; gamma-GTP [7]: 1.2 IU/L; ALP [8]: 564 IU/L; ALT [8]: 32.4 IU/L; AST [8]: 63.4 IU/L; BUN [8]: 21.2 mg/dL; CRE [8]: 0.6 mg/dL; Ca [8]: 10.7 mg/dL; DBIL [8]: 0 mg/dL; GLC [8]: 180.8 mg/dL; IP [8]: 7.3 mg/dL; K [8]: 4.3 meq/L; LDH [8]: 131.8 IU/L; Na [8]: 140.4 meq/L; PL [8]: 162.4 mg/dL; RALB [8]: 4.2 g/dL; TBIL [8]: 0.2 mg/dL; TC [8]: 74 mg/dL; TG [8]: 177.2 mg/dL; TP [8]: 6.4 g/dL
